From patent US7115574B2, “System and method for support legacy operating system booting in a legacy-free system” (priority 2001, dated 2006)

Assays:
C. albicans [1] = assay: C. albicans colony forming units (candidacidal activity); format: cell-based; details: for C. albicans colony forming units (CFU): FIG. 1, incubation 2 hours at 37° C.; for relative potency in reducing C. albicans viability: FIG. 2, 10^−4M melanocortin peptides
Method: C. albicans (clinical isolate) was obtained from the collection of the Department of Microbiology, Ospedale Maggiore di Milano and maintained on Sabouraud's agar slants and periodically transferred to Sabouraud's agar plates and incubated for 48 hours at 28° C. To prepare a stationary growth phase yeast, a colony was taken from the agar plate and transferred into 30 ml Sabouraud-dextrose broth and incubated for 72 hours at 32° C. Cells were centrifuged and suspended in Hank's balanced salt solution (“HBSS”) to the desired concentration. Viability, determined by the exclusion of 0.01% methylene blue, remained >98%.
C. albicans (1×10^6/ml in HBSS) was incubated in the presence or absence or α-MSH(1-13) (SEQ ID NO: 3) or (11-13) (SEQ ID NO: 1) at concentrations in the range of 10^−15 M to 10^−6 M for 2 hours at 37° C. Cells were then washed in cold distilled water and diluted with HBSS to a concentration of 100 organisms/ml. One-ml aliquots were dispensed on blood agar plates and incubated for 48 hours at 37° C. Organism viability was estimated from the number of colonies formed.
In subsequent experiments using familiar procedures we compared activity of α-MSH(4-10) (SEQ ID NO: 10), (6-13) (SEQ ID NO: 2), (11-13) (SEQ ID NO: 1), ACTH(1-39) (SEQ ID NO: 9), (18-39) (SEQ ID NO: 11) and fluconazole, the latter an established antifungal agent. Melanocortin peptides and fluconazole were tested in concentrations of 10^−6 M to 10^−4 M. There were at least six replicates for each concentration of peptide. […]

C. albicans [2] = assay: cAMP content of C. albicans (EIA); format: cell-based; details: 10^−6 M; for cAMP content in the yeast: 3 minutes, permeabilized C. albicans
Method: C. albicans (10^6/ml), permeabilized with toluene/ethanol, were incubated at 37° C. with continuous shaking in the presence of 10^−6 M α-MSH(1-13) (SEQ ID NO: 3), (11-13), (SEQ ID NO: 1), forskolin, an agent known to increase intracellular cAMP, or in medium alone. The reaction was stopped after 3 minutes by the addition of ice cold ethanol, cAMP was measured in duplicate using a commercial enzyme immunoassay (EIA) kit (Amersham, United Kingdom) after extraction via the liquid-phase method according to manufacturer's instructions. The effect of forskolin (10^−6 M) on C. albicans colony formation was determined using the same procedure as for α-MSH peptides.

[3] = tested on: inflammation induced in the hind paw by kappa carrageenan; assay: Kappa carrageenan hind paw inflammation in spinal cord intact and transected mice; format: in vivo, BALB/c mice; details: for effect on carrageenan-induced paw swelling: spinal cord transected mice; for inhibition of inflammation induced in the hind paw: central administration, spinal cord intact mice
Method: Because surgical dissection of trigeminal structures that innervate the ear of the mouse is very difficult, tests to learn whether descending neural pathways are essential to the anti-inflammatory activity of centrally administered α-MSH peptides were performed in mice with inflammation induced in a hind paw. In these experiments, each animal was anesthetized with pentobarbital sodium solution as above. Baseline foot pad thickness of both hind paws was measured with a spring-loaded micrometer (Swiss Precision Instruments, Los Angeles, Calif.). Paw thickness was expressed in units of 10^−3 cm; average thickness of unstimulated paws was 171.5×10^−3 cm across shipments of animals. Kappa carrageenan (Sigma) dissolved in saline (0.05%, 20 μl) was injected (28 gauge allergy test syringe) into one footpad, and saline (20 μl) was injected into the other. For the analyses, the increase in thickness of the control saline-injected paw of each animal was subtracted from that of the carrageenan-injected paw, to eliminate the influence of mechanical injury and volume of the injected fluid. […] Treatment with the locally acting steroid reduced swelling up to 29% (average, relative to saline controls) at 4.5 hr. after carrageenan.
However, a standardized crushing of lumbar vertebrae with a hemostat (Kelly) was effective in severing the cord; no deaths were caused by this treatment. […] The experiments were limited to 4.5 hr to reduce problems of bowel and bladder dysfunction. Immediately after the 4.5 hr measurements all mice were killed with an overdose of sodium pentobarbital.
Because of the size of the experiments and the requirement for several shipments of animals over time, several experiments were performed, each with complete treatment and control groups drawn from the same shipment of mice. Omnibus analysis of variance techniques (Dynastat, Washington, D.C.) were used to test overall differences among group means. Tukey's protected t test was used to compare individual means. Probability values of <0.05 were considered significant.

Substance | C. albicans colony forming units (CFU) (C. albicans [1]) | relative potency in reducing C. albicans viability (C. albicans [1]) | increase in cAMP relative to equimolar forskolin (C. albicans [2]) | cAMP content in the yeast (C. albicans [2]) | effect on carrageenan-induced paw swelling ([3]; given intraperitoneally) | effect on carrageenan-induced paw swelling ([3]; given intraperitoneally, listed as tripeptide) | inhibition of inflammation induced in the hind paw ([3]; 3 hr) | inhibition of inflammation induced in the hind paw ([3]; 4.5 hr) | effect on carrageenan-induced paw swelling ([3]; centrally injected)
Ac-Lys-Pro-Val-NH2 [α-MSH(11-13)] | greatly reduced | most effective | same order of magnitude | enhanced cAMP content | even more effective at reducing swelling | marked inhibitory effect on inflammation | – | – | –
SYSMEHFRWGKPV [α-MSH(1-13)] | greatly reduced | most effective | – | enhanced cAMP content | significant, although smaller, inhibitory effect | – | 57% | 29% | had no effect on paw swelling
